The values below come from ChEMBL document CHEMBL1130733, “Synthesis and structure-activity relationships of pyridine-modified analogs of 3-[2-((S)-pyrrolidinyl)methoxy]pyridine, A-84543, a potent nicotinic acetylcholine receptor agonist” (Bioorg Med Chem Lett, 1998).

Experiment [1] addresses Nicotinic acetylcholine receptor alpha3/betaX. Briefly: Stimulation of cation efflux in Nicotinic acetylcholine receptor alpha3-betaX subtype expressing IMR-32 cells. Type of experiment: functional, cell-based, Homo sapiens.
The target of experiment [2] is T1, Neuronal acetylcholine receptor; alpha4/beta2 (Homo sapiens, UniProt P17787+P43681). Briefly: Maximal efficacy relative to 100 uM nicotine in human nAChR alpha4-beta2 expressing K177 cells. Type of experiment: cell-based.
T1 sequence (P17787 whole entry): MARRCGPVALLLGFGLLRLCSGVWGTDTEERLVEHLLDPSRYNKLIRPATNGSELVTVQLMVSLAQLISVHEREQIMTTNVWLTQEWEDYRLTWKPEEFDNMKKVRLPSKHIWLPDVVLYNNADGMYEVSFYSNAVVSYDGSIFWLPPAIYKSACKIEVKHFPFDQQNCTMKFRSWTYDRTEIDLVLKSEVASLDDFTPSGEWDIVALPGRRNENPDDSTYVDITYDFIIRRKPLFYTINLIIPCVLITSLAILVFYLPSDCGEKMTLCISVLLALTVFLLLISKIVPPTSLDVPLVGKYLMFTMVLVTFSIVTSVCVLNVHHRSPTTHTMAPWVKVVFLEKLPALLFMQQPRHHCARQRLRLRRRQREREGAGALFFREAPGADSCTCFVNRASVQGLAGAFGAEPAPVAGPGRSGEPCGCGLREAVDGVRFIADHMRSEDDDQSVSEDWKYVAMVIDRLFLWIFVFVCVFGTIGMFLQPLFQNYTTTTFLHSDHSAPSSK
T1 sequence (P43681 whole entry): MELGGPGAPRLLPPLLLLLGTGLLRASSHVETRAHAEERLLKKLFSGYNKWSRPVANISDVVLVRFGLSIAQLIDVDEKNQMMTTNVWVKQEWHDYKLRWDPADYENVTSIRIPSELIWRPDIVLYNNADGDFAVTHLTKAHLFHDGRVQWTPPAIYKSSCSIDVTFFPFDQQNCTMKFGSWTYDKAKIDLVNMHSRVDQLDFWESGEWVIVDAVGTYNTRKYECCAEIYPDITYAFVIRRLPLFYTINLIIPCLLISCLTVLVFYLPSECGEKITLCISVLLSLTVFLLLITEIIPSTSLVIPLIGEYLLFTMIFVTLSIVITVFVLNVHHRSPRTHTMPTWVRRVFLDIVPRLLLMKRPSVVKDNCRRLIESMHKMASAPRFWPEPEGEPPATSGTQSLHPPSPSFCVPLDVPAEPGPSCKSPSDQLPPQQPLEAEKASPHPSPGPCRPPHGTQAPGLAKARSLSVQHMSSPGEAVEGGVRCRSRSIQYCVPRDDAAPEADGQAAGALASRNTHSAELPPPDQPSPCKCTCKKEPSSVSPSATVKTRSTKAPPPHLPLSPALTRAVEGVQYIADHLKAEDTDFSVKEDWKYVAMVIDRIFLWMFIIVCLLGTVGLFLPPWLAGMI
Experiment [3] addresses Neuronal acetylcholine receptor; alpha4/beta2 (Rattus norvegicus, UniProt P09483+P12390). Briefly: Binding affinity towards nAChR (alpha4-beta2) by the displacement of [3H](-)-cytisine in whole rat brain membranes. The experiment is classed as cell membranes. In general terms: Displacement assays read how much labelled ligand stays bound in the presence of the test substance.

Experiment [4] concerns the target T1, Neuronal acetylcholine receptor; alpha4/beta2. Briefly: Stimulation of cation efflux in human nAChR alpha4-beta2 expressing K177 cells. The experiment is classed as cell-based.
For experiment [5] the target is unchanged. Briefly: Inhibition of cation efflux in human nAChR alpha4-beta2 expressing K177 cells. The experiment is classed as cell-based.
In experiment [6] the target is Nicotinic acetylcholine receptor alpha3/betaX (Homo sapiens) (UniProt P11230+P17787+P30926+P32297+Q05901). Briefly: Maximal efficacy relative to 100 uM nicotine in Nicotinic acetylcholine receptor alpha3-betaX subtype expressing IMR-32 cells. Type of experiment: cell-based.
In experiment [7] the target is T1, Neuronal acetylcholine receptor; alpha4/beta2. Particulars: IMR-32.
Description: Maximal efficacy in nAChR subtype human alpha3betaX, expressed in IMR-32 cells
For experiment [8] the target is unchanged. Particulars: K177.
Description: Maximal efficacy in human nAChR alpha4-beta2 expressing K177 cells

Chain of Neuronal acetylcholine receptor; alpha4/beta2 (Rattus norvegicus, UniProt P09483+P12390) (P09483 whole entry): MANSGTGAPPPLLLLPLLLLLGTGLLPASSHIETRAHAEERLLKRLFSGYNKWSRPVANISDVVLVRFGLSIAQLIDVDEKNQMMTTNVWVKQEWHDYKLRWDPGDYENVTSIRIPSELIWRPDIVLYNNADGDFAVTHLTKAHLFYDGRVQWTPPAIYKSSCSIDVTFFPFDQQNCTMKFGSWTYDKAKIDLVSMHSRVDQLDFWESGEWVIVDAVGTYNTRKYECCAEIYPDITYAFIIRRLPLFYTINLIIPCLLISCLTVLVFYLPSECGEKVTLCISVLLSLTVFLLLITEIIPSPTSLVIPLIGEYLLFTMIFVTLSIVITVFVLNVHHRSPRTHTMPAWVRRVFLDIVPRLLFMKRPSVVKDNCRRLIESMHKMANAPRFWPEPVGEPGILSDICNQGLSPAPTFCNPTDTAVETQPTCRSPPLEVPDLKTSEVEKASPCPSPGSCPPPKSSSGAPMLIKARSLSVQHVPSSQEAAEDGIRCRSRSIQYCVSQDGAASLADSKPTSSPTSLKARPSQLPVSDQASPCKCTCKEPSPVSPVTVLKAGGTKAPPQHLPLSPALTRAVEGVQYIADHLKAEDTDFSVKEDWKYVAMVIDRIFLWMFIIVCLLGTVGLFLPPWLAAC
Chain of Neuronal acetylcholine receptor; alpha4/beta2 (Rattus norvegicus, UniProt P09483+P12390) (P12390 whole entry): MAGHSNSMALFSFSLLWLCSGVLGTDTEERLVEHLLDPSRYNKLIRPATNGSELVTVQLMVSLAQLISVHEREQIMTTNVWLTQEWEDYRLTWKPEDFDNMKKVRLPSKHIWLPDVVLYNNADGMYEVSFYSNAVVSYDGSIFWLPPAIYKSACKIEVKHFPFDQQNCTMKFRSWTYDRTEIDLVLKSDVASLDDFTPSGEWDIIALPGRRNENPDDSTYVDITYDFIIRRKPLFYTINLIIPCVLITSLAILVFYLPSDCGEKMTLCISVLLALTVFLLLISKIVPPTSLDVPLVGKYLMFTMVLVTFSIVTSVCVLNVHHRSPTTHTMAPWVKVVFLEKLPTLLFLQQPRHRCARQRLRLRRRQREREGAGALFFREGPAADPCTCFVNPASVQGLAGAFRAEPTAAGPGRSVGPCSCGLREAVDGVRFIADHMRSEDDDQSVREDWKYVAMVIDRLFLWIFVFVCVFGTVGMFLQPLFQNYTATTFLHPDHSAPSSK

A word on the EC50: it is the concentration that produces a half-maximal response. One may read the Ki as the equilibrium dissociation constant of an inhibitor or competing ligand from its target. A high value points to a looser hold on the target. As for `Cc1cncc(OC[C@@H]2CCCN2C)c1`, the EC50 in experiment [1] was determined as 2.9 µM; in experiment [4], 2.3 µM. For the same compound, the Max in experiment [2] stood at 77%. This compound showed a Ki in experiment [3] of 0.00048 µM.
Compound `CN1CCC[C@H]1COc1ccc(F)nc1` yielded a Ki in experiment [3] of 0.00256 µM.
One may read the IC50 as the concentration that inhibits the measured activity by half. High values mean weaker potency, low ones greater potency. `CCCCc1cncc(OC[C@@H]2CCCN2C)c1`: the EC50 in experiment [1] and in experiment [4] was over 1000 µM throughout. The same compound registered a Max in experiment [2] of 14%. In addition, the affinity in experiment [3], expressed as Ki, was 0.00016 µM. Moreover, 0.64 µM corresponded to half-maximal inhibition in experiment [5] (IC50).
As for `CN1CCC[C@H]1COc1cccnc1I`, the inhibition constant Ki in experiment [3] was 0.606 µM.
Same read-out and setting: in the case of `CN1CCC[C@H]1COc1cccnc1[N+](=O)[O-]` it was 9 µM.
As for `Cc1ncccc1OC[C@@H]1CCCN1C`, the results for the EC50 in experiment [1] and in experiment [4] were 18.2 µM and 4.8 µM, respectively. The results for the Max in experiment [6] and in experiment [2] were 27.7% and 26.7%, respectively. The compound also showed a Ki in experiment [3] of 0.0229 µM.
For `CN1CCC[C@H]1COc1ccc(Br)nc1`, the EC50 is over 1000 µM in experiment [1] and 2.6 µM in experiment [4]. Moreover, the Max in experiment [2] was 42.5%. Moreover, the Ki in experiment [3] amounted to 0.00191 µM.
Regarding `CN1CCC[C@H]1COc1cncc(Br)c1`, in experiment [2], the Max stood at 41.8%. Further, the Ki in experiment [3] was 0.00027 µM. In addition, a half-maximal response in experiment [4] (EC50) required 5.95 µM.
In experiment [3], `CN1CCC[C@H]1COc1cc(Br)c[n+]([O-])c1` returned an inhibition constant Ki of 0.0348 µM.
Same read-out and setting: under `CC(C)Cc1cncc(OC[C@@H]2CCCN2C)c1` stands 0.00021 µM; under `CN1CCC[C@H]1COc1cncc(N)c1`, 0.00063 µM; under `CN1CCC[C@H]1COc1cncc(F)c1`, 0.00069 µM.
Still for that read-out and setting: under `CSc1ncccc1OC[C@@H]1CCCN1C` stands 0.559 µM; under `CN1CCC[C@H]1COc1cncc(Cl)c1`, 0.0006 µM.
With `CN1CCC[C@H]1COc1cccnc1`, the midpoint of the response in experiment [1], the EC50, lay at 19.4 µM. For the same compound, the Max in experiment [6] was 73.2%; in experiment [2] it was 100%. The Ki in experiment [3] was 0.00015 µM.
`CCCCCCc1cncc(OC[C@@H]2CCCN2C)c1` registered a Ki in experiment [3] of 0.00032 µM.
The same measure, in the same setting: under `CN1CCC[C@H]1COc1ccc(CO)nc1` stands 0.0974 µM; under `CN1CCC[C@H]1COc1cncc(C(F)(F)F)c1`, 0.00183 µM.
As for `CCc1cncc(OC[C@@H]2CCCN2C)c1`, the EC50 in experiment [1] was over 1000 µM; in experiment [4], 1 µM. Besides, the Max in experiment [2] came to 33.7%. The compound also yielded a Ki in experiment [3] of 0.00032 µM.
On to `CCCc1cncc(OC[C@@H]2CCCN2C)c1`, for which the EC50 in experiment [1] and in experiment [4] was over 1000 µM each time. In experiment [2], the Max is 13%. For the same compound, affinity in experiment [3] was put at a Ki of 0.00012 µM. Also, the midpoint of inhibition in experiment [5], the IC50, lay at 2.4 µM.
On to `CN1CCC[C@H]1COc1cccnc1Br`, for which the EC50 in experiment [1] and in experiment [4] was over 1000 µM each time. In addition, the Max in experiment [2] is 12.3%. Besides, in experiment [3], the affinity, expressed as Ki, was 0.451 µM.
Consider `CCNc1cncc(OC[C@@H]2CCCN2C)c1`, for which, in experiment [3], the affinity corresponds to a Ki of 0.0037 µM.
For the compound `CN1CCC[C@H]1COc1ccc(Cl)nc1`, the concentration giving a half-maximal response (EC50) was found to be 27.1 µM in experiment [1] and 1.4 µM in experiment [4]. In experiment [2], the Max worked out at 108%. The Ki in experiment [3] amounted to 0.00064 µM.
In the case of `CN1CCC[C@H]1COc1cncc([N+](=O)[O-])c1`, affinity in experiment [3] was put at a Ki of 0.00465 µM.
As to `Cc1ccncc1OC[C@@H]1CCCN1C`, the values for the EC50 in experiment [1] and in experiment [4] were over 1000 µM and 2.1 µM, respectively. In experiment [2], this compound gave a Max of 73.9%. The compound further yielded a Ki in experiment [3] of 0.00412 µM.
For `CN1CCC[C@H]1COc1cnccc1Br`, the EC50 in experiment [1] and in experiment [4] was over 1000 µM in each case. This compound also registered a Max in experiment [2] of 14.1%. Besides, affinity in experiment [3] was put at a Ki of 0.028 µM.
With `CN1CCC[C@H]1c1cccnc1`, the Max in experiment [7] and in experiment [8] was 100% in each case.
As for `CCN(CC)C(=O)c1ccncc1OC[C@@H]1CCCN1C`, the affinity in experiment [3], expressed as Ki, was 2.83 µM. In other words, the single-digit micromolar range.
Consider `Cc1ccc(OC[C@@H]2CCCN2C)cn1`, for which the concentration giving a half-maximal response (EC50) in experiment [1] amounted to 13.4 µM; in experiment [4] it was 2.2 µM. Besides, in experiment [2], the Max came to 54.4%. This compound gave a Ki in experiment [3] of 0.00126 µM.
